Three molecules from EP2325159A1, “Novel salts of rasagiline” (LEK Pharmaceuticals d.d., priority 2009, dated 2011) can be followed below.

Usually solubility stands for the dissolved amount per volume that the medium holds.

A short description of one data set: physchem. As to conditions: water, Solubility of rasagiline salts in water.
Data set [1] in a line: Solubility of rasagiline salts in water measured using Crystal16 (Avantium Technologies).

For `C#CCN[C@@H]1CCc2ccccc21` [(+)-camphor-10-sulfonate, Rasagiline (+)-camphor-10-sulfonate], the “Solubility of rasagiline salts in water” value was determined as 175 mg/mL. Besides, the solubility in “physchem” was found to be 113 mg/mL. For the molecule `C#CCN[C@@H]1CCc2ccccc21` [L-tartrate, Rasagiline L-tartrate, reference compound], the solubility in data set [1] was below 30 mg/mL. Turning to `C#CCN[C@@H]1CCc2ccccc21` [L-mandelate, Rasagiline L-mandelate], the solubility in data set [1] (Solubility of rasagiline salts in water, 25 °C, H2O) was 70 mg/mL; in data set [1] (Solubility of rasagiline salts in water, 40 °C, H2O) it was 100 mg/mL.
